Results taken from PubChem BioAssay (NCI).
Where “and” joins values, the source holds several entries; their conditions need not be identical. Identical values can stand only once.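 Grown in 96-well plates, cells were treated for 48 hours with each compound at five concentrations. Insufficient inhibition: endpoint recorded as highest concentration tested. GI50 is the concentration that inhibits growth by half. TGI denotes the concentration required for complete inhibition of growth.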

Assays:
Experiment in all cases: NCI tumour cell line growth inhibition, 48 h
DMS 114 small cell lung = system: DMS 114 small cell lung
DMS 273 small cell lung = system: DMS 273 small cell lung
KM20L2 colon = system: KM20L2 colon
LXFL 529 NSCLC = system: LXFL 529 NSCLC
MDA-N = system: MDA-N
SNB-78 CNS = system: SNB-78 CNS
XF 498 CNS = system: XF 498 CNS
HOP-18 NSCLC = system: HOP-18 NSCLC
RXF-631 renal = system: RXF-631 renal

**Q.** Which results are given for `CNC(=O)NC(CCCCNC(=O)OCc1ccccc1)C(=O)OCc1ccccc1` (stereo not given)?
**A.** TGI (DMS 114 small cell lung): 85.4 µM; TGI (DMS 273 small cell lung): > 100 µM; TGI (KM20L2 colon): > 100 µM; TGI (LXFL 529 NSCLC): > 100 µM; TGI (MDA-N): 44 µM; TGI (SNB-78 CNS): > 91.7 µM; TGI (XF 498 CNS): 31.8 µM

**Q.** Which TGI (HOP-18 NSCLC) does the source give for `CCOC(=O)C(C(=O)OCC)=C1N[C@H](C(=O)OCC)CS1` here?
**A.** > 100 µM

**Q.** And the TGI (KM20L2 colon)?
**A.** > 100 µM

**Q.** And the TGI (LXFL 529 NSCLC)?
**A.** > 100 µM

**Q.** What about the TGI (RXF-631 renal) of the same compound?
**A.** > 100 µM

**Q.** And the TGI (SNB-78 CNS)?
**A.** > 100 µM

**Q.** And the TGI (XF 498 CNS)?
**A.** > 100 µM

**Q.** `CCCCCNC(=O)c1c(O)[nH]c(=S)[nH]c1=O` was tested. Which TGI (DMS 114 small cell lung) did it give?
**A.** > 100 µM

**Q.** And the TGI (KM20L2 colon)?
**A.** > 100 µM

**Q.** And the TGI (LXFL 529 NSCLC)?
**A.** > 100 µM

**Q.** And the TGI (RXF-631 renal)?
**A.** > 100 µM

**Q.** What about the TGI (SNB-78 CNS) of the same compound?
**A.** > 100 µM

**Q.** With `O=C(c1nc2ccc(Cl)cc2[nH]c1=O)C(O)c1ccc2c(c1)OCO2` (stereo not given) as the compound, how does the TGI (DMS 114 small cell lung) read?
**A.** 94.1 µM

**Q.** What about the TGI (DMS 273 small cell lung) of the same compound?
**A.** > 100 µM

**Q.** What about the TGI (HOP-18 NSCLC) of the same compound?
**A.** > 100 µM

**Q.** And the TGI (KM20L2 colon)?
**A.** > 100 µM

**Q.** What about the TGI (LXFL 529 NSCLC) of the same compound?
**A.** > 100 µM

**Q.** What about the TGI (RXF-631 renal) of the same compound?
**A.** > 100 µM

**Q.** What about the TGI (XF 498 CNS) of the same compound?
**A.** > 100 µM

**Q.** Which results are given for `Cc1c(C(=O)/C=C/c2c(Cl)cccc2Cl)c(=O)n(-c2ccccc2)n1C`?
**A.** TGI (DMS 114 small cell lung): > 100 µM; TGI (DMS 273 small cell lung): 33.7 µM; TGI (KM20L2 colon): > 100 µM; TGI (LXFL 529 NSCLC): 31.1 µM; TGI (SNB-78 CNS): > 100 µM; TGI (XF 498 CNS): 71 µM

**Q.** Which results are given for `CC(=O)c1ccc(NC(=O)C(=O)C(C(=O)c2ccc(Cl)c(Cl)c2)C2OC(=O)c3ccccc32)cc1` (stereo not given)?
**A.** TGI (DMS 114 small cell lung): 46.3 µM; TGI (DMS 273 small cell lung): 68.5 µM; TGI (HOP-18 NSCLC): 90.6 µM; TGI (KM20L2 colon): > 100 µM; TGI (LXFL 529 NSCLC): 32.8 µM; TGI (SNB-78 CNS): > 100 µM; TGI (XF 498 CNS): > 100 µM

**Q.** With `CCC1CC(C)=CCN1S(=O)(=O)c1ccc(C)cc1` (stereo not given) as the compound, how does the TGI (DMS 114 small cell lung) read?
**A.** 53.7 µM

**Q.** What about the TGI (DMS 273 small cell lung) of the same compound?
**A.** 67.9 µM

**Q.** And the TGI (KM20L2 colon)?
**A.** 36 µM

**Q.** What about the TGI (LXFL 529 NSCLC) of the same compound?
**A.** > 100 µM

**Q.** Which GI50 (DMS 114 small cell lung) does the source give for `O=C(O)c1cccc2cccc(C(=O)O)c12.[Hg]` here?
**A.** 3.8 µM

**Q.** And the TGI (DMS 114 small cell lung)?
**A.** 21.5 µM

**Q.** What about the GI50 (DMS 273 small cell lung) of the same compound?
**A.** 15.4 µM

**Q.** And the TGI (DMS 273 small cell lung)?
**A.** 31.4 µM

**Q.** What about the GI50 (HOP-18 NSCLC) of the same compound?
**A.** 18.6 µM

**Q.** And the TGI (HOP-18 NSCLC)?
**A.** 35.3 µM

**Q.** What about the GI50 (KM20L2 colon) of the same compound?
**A.** > 100 µM

**Q.** What about the TGI (KM20L2 colon) of the same compound?
**A.** > 100 µM

**Q.** What about the GI50 (LXFL 529 NSCLC) of the same compound?
**A.** 14.6 µM

**Q.** What about the TGI (LXFL 529 NSCLC) of the same compound?
**A.** 28.1 µM

**Q.** How did the TGI (HOP-18 NSCLC) turn out when `CCOC(=O)N[C@@H]1C2CC(=O)C(O2)[C@@H]1OC` (stereo not given in full) was run?
**A.** > 100 µM

**Q.** What about the TGI (KM20L2 colon) of the same compound?
**A.** > 100 µM

**Q.** What about the TGI (SNB-78 CNS) of the same compound?
**A.** > 100 µM

**Q.** `CCOC(=O)C(=O)Nc1c(C)cccc1C(C)C` was tested. Which TGI (DMS 114 small cell lung) did it give?
**A.** > 100 µM

**Q.** And the TGI (DMS 273 small cell lung)?
**A.** > 100 µM

**Q.** And the TGI (HOP-18 NSCLC)?
**A.** > 100 µM

**Q.** What about the TGI (KM20L2 colon) of the same compound?
**A.** > 100 µM

**Q.** And the TGI (LXFL 529 NSCLC)?
**A.** > 100 µM

**Q.** What about the TGI (RXF-631 renal) of the same compound?
**A.** > 100 µM

**Q.** And the TGI (SNB-78 CNS)?
**A.** > 100 µM

**Q.** What about the TGI (XF 498 CNS) of the same compound?
**A.** > 100 µM

**Q.** With `Cc1cc(=O)oc2c(OS(C)(=O)=O)c(OS(C)(=O)=O)ccc12` as the compound, how does the TGI (MDA-N) read?
**A.** > 100 µM

**Q.** For `CCCCCCCCCCCCCCCCCC(=O)OCC(C[As](=O)(O)O)OC(=O)CCCCCCCCCCCCCCCCC` (stereo not given), which TGI (DMS 114 small cell lung) is on record?
**A.** 34.3 µM

**Q.** And the TGI (DMS 273 small cell lung)?
**A.** > 100 µM

**Q.** What about the TGI (HOP-18 NSCLC) of the same compound?
**A.** > 100 µM

**Q.** What about the TGI (KM20L2 colon) of the same compound?
**A.** > 100 µM

**Q.** What about the TGI (LXFL 529 NSCLC) of the same compound?
**A.** > 100 µM

**Q.** What about the TGI (RXF-631 renal) of the same compound?
**A.** > 100 µM

**Q.** And the TGI (SNB-78 CNS)?
**A.** > 100 µM

**Q.** What about the TGI (XF 498 CNS) of the same compound?
**A.** 53 µM

**Q.** What does the source list for `CCC[CH2][Sn]1([CH2]CCC)[O]CC(CN2CCOCC2)[O]1` (stereo not given)?
**A.** GI50 (DMS 114 small cell lung): 1.36 µM; TGI (DMS 114 small cell lung): 4.35 µM; GI50 (DMS 273 small cell lung): 3.15 µM; TGI (DMS 273 small cell lung): 12 µM; GI50 (KM20L2 colon): 5.35 µM; TGI (KM20L2 colon): 19.1 µM; GI50 (LXFL 529 NSCLC): 1.11 µM; TGI (LXFL 529 NSCLC): 2.47 µM; GI50 (RXF-631 renal): 1.41 µM; TGI (RXF-631 renal): 2.71 µM; GI50 (SNB-78 CNS): 2.12 µM; TGI (SNB-78 CNS): 6.36 µM; GI50 (XF 498 CNS): 1.62 µM; TGI (XF 498 CNS): 3.11 µM

**Q.** Which TGI (DMS 114 small cell lung) does the source give for `CN(C)C1=NC2=S(SC(Nc3ccccc3)=N2)S1` (stereo not given) here?
**A.** 42.6 µM

**Q.** What about the TGI (DMS 273 small cell lung) of the same compound?
**A.** 66 µM

**Q.** What about the TGI (HOP-18 NSCLC) of the same compound?
**A.** 91.4 µM

**Q.** What about the TGI (KM20L2 colon) of the same compound?
**A.** > 100 µM

**Q.** What about the TGI (LXFL 529 NSCLC) of the same compound?
**A.** 62.9 µM

**Q.** And the TGI (RXF-631 renal)?
**A.** > 100 µM

**Q.** And the TGI (SNB-78 CNS)?
**A.** > 100 µM

**Q.** What about the TGI (XF 498 CNS) of the same compound?
**A.** 50.5 µM

**Q.** For `NCCCNCCSSC/C=C\CSSCCNCCCN`, which TGI (DMS 114 small cell lung) is on record?
**A.** > 100 µM

**Q.** What about the TGI (DMS 273 small cell lung) of the same compound?
**A.** > 100 µM

**Q.** What about the TGI (HOP-18 NSCLC) of the same compound?
**A.** > 100 µM

**Q.** And the GI50 (KM20L2 colon)?
**A.** > 100 µM and 38.9 µM

**Q.** What about the TGI (KM20L2 colon) of the same compound?
**A.** > 100 µM

**Q.** And the TGI (LXFL 529 NSCLC)?
**A.** > 100 µM and 88.4 µM

**Q.** And the GI50 (SNB-78 CNS)?
**A.** 55 µM and 24.8 µM

**Q.** What about the TGI (SNB-78 CNS) of the same compound?
**A.** > 100 µM

**Q.** And the TGI (XF 498 CNS)?
**A.** > 100 µM

**Q.** What does the source list for `O=NN/C(=C1\Nc2ccc([N+](=O)[O-])cc2NC1=O)C(O)c1ccc([N+](=O)[O-])cc1` (stereo not given)?
**A.** TGI (DMS 114 small cell lung): > 100 µM; TGI (DMS 273 small cell lung): > 100 µM; TGI (KM20L2 colon): > 100 µM; TGI (LXFL 529 NSCLC): > 100 µM; TGI (RXF-631 renal): > 100 µM; TGI (SNB-78 CNS): > 100 µM; TGI (XF 498 CNS): > 100 µM

**Q.** Which TGI (DMS 273 small cell lung) does the source give for `Cc1ccc(C(=O)C#Cc2c[nH]c(=O)[nH]c2=O)cc1` here?
**A.** 38.6 µM

**Q.** And the TGI (HOP-18 NSCLC)?
**A.** 32.6 µM

**Q.** What about the TGI (SNB-78 CNS) of the same compound?
**A.** 28.5 µM

**Q.** How did the TGI (DMS 114 small cell lung) turn out when `COc1cc(Nc2nc3cc(C(F)(F)F)ccc3nc2-c2ccccc2)cc(OC)c1OC` was run?
**A.** > 100 µM

**Q.** And the TGI (DMS 273 small cell lung)?
**A.** > 100 µM

**Q.** And the TGI (LXFL 529 NSCLC)?
**A.** > 100 µM

**Q.** And the TGI (RXF-631 renal)?
**A.** > 100 µM

**Q.** And the TGI (SNB-78 CNS)?
**A.** > 100 µM

**Q.** What about the TGI (XF 498 CNS) of the same compound?
**A.** 55.2 µM

**Q.** Which TGI (DMS 114 small cell lung) does the source give for `CCCc1nc(NC#N)nc(C(=O)NC23CC4CC(CC(C4)C2)C3)c1C` here?
**A.** > 100 µM

**Q.** What about the TGI (DMS 273 small cell lung) of the same compound?
**A.** > 100 µM

**Q.** What about the TGI (HOP-18 NSCLC) of the same compound?
**A.** > 100 µM

**Q.** And the TGI (KM20L2 colon)?
**A.** > 100 µM

**Q.** And the TGI (LXFL 529 NSCLC)?
**A.** > 100 µM

**Q.** And the TGI (SNB-78 CNS)?
**A.** > 100 µM
